Source: patent US20230057984A1, “NORMALIZATION OF CULTURE OF CORNEAL ENDOTHELIAL CELLS” (KYOTO PREFECTURAL PUBLIC UNIVERSITY CORPORATION, priority 2011, published 2023)

Tested on: Cynomolgus monkey corneal endothelial cells
Experiment: Immunostaining of Na+/K+-ATPase and ZO-1 in monkey corneal endothelial cells (Example 3)
Assay type: cell-based
Conditions: monkey CEC treated with SB431542; control lost its staining
Procedure: Phosphatase inhibitor cocktail 2 (Sigma-Aldrich) and protease inhibitor cocktail (Nacalai Tesque, Inc., Kyoto city) were added to the aforementioned RIPA buffer. The obtained cell lysate was centrifuged (15,000 rpm, 10 minutes) where the supernatant thereof was collected, and the protein was quantitated using a BCA PROTEIN ASSAY KIT (PIERCE (catalog number: 23227)). Dissolution was performed using 100 μl dissolution buffer (Laemmli sample buffer) including 5 mM 2-mercaptoethanol (Nacalai Tesque (catalog number: 21418-42)). • Immunostaining: after washing cells which had reached confluency with PBS (Nissui, catalog number: 5913), the cells were fixed for 10 minutes with iced ethanol (Nacalai Tesque, catalog number: 14713-95) and acetic acid (WAKO catalog number:017-00256) (95:5).
Blocking was performed via incubation for 1 hour with 0.1% (vol/vol) polyethylene sorbitan monolaurate (Nacalai Tesque, catalog number: 28353-85) (TBS-T) and Tris buffered saline (10 mM Tris-HCl, pH7.4; 100 mM NaCl) with 10% fetal bovine serum. […]
Next, reaction was allowed for 1 hour at a room temperature with ALEXA FLUOR 488 (INVITROGEN (catalog number: A21206)) and ALEXA FLUOR 594 (INVITROGEN (catalog number: A21203)), diluted with TBS-T by 1,000 fold. […] After washing, bands were detected using an ECL-ADVAVCE Western Blotting Detection Kit (GE healthcare Japan (catalog number: RPN2135V)). […]

With `NC(=O)c1ccc(-c2nc(-c3ccc4c(c3)OCO4)c(-c3ccccn3)[nH]2)cc1` [SB431542] the “plasma membrane staining of Na+/K+-ATPase and ZO-1 (immunostaining)” value was “characteristic plasma membrane staining of Na^+/K^+-ATPase and ZO-1”.
